Measurements published in paper PMC2682197, “Mycobacterium tuberculosis Universal Stress Protein Rv2623 Regulates Bacillary Growth by ATP-Binding: Requirement for Establishing Chronic Persistent Infection” (PLoS Pathogens, 2009).

Target: Rv2623 (Mycobacterium tuberculosis, UniProt P9WFD7)
Sequence (P9WFD7 whole entry): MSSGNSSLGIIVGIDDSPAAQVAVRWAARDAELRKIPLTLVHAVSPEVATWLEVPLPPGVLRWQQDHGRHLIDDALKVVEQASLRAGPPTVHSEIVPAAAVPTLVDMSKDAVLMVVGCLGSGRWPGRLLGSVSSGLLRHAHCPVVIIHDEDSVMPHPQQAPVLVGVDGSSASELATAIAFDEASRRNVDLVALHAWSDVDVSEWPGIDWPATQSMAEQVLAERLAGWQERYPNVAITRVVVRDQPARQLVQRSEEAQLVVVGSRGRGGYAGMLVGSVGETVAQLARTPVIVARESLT

## Nc1ncnc2c1ncn2[C@@H]1O[C@H](COP(=O)(O)OP(=O)(O)O)[C@@H](O)[C@H]1O [ADP]
  HPLC of nucleotide extracted from purified protein by boiling: His6-Rv2623 co-purifies with both ATP and ADP
